Laboratory results taken from paper PMC8878317, “Chemogenomics identifies acetyl-coenzyme A synthetase as a target for malaria treatment and prevention” (Cell Chemical Biology, 2022).

Test system: P. falciparum 3D7 parasites
Experiment: Metabolomic profiling of compound-treated parasites (LC/MS);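 as to Metabolite data: 3-Phosphoglycerate: Log2 fold change in abundance versus untreated parasite controls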;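 as to Metabolite data: Myo-Inositol: Log2 fold change in abundance versus untreated parasite controls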;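 as to Metabolite data: N-Carbamoyl-L-Aspartate: Log2 fold change in abundance versus untreated parasite controls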;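 as to Metabolite data: Nicotinate: Log2 fold change in abundance versus untreated parasite controls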
Assay type: cell-based
Design: Metabolite data: dTMP / Metabolite data: GMP / Metabolite data: S-Adenosyl-L-Homocysteine / Metabolite data: 1_3-Bisphosphoglyceric acid: scale not given here
Method: The metabolite extraction protocol was performed as described elsewhere ([Allman et al., 2016]). Briefly, 1 mL of trophozoites that were magnetically purified to a concentration of 1×10^8 parasites/mL were placed into wells with 4 mL of RPMI 1640 media and allowed to recover for one hour. […] The culture was incubated for another 2.5 hr. The culture was centrifuged and quenched with 90% methanol containing 0.25 μM ^13C,^15N-Labeled-Aspartate, vortexed, and centrifuged. The supernatant was transferred to a new tube and dried for storage. Prior to analysis, the samples were resuspended to a final concentration of 1×10^8 parasites/mL in a solution of 3% methanol:water containing 1 μM chlorpropamide as an internal standard.
The chromatographic conditions used in this experiment were performed with slight modifications from previous methods ([Zhang et al., 2018]). Briefly, a Waters XSelect HSS C18 column was used on a gradient reverse-phase chromatographic configuration with 97:3 water:methanol with 10 mM tributylamine and 15 mM acetic acid (solvent A) and methanol (solvent B). A Thermo-Scientific Exactive Plus Orbitrap mass spectrometer was operated in negative mode for the detection of the metabolites. Peak picking and integration were performed using El-Maven LC/MS data processing software. The peak data were then exported to Excel where metabolite areas were normalized to the internal standards, blank subtracted, and averaged by condition.

Cc1cc(Nc2ccc3ccccc3c2)n2ncnc2n1 [DSM1]
Metabolite data: 1_3-Bisphosphoglyceric acid: 0 | Metabolite data: 2_3-Diphosphoglyceric acid: -0.2991 | Metabolite data: 3-Phosphoglycerate: -0.4141 | Metabolite data: 4-Aminobutyrate: 0.009246 | Metabolite data: 4-Phosphopantothenate: -0.5403 | Metabolite data: 4-phosphopantetheine: 0 | Metabolite data: 5-aminopentanoic acid: 0 | Metabolite data: 5-phosphoribosyl-1-pyrophosphate: 0 | Metabolite data: 6-Phospho-D-Gluconate: -0.253 | Metabolite data: ADP-D-Glucose: -0.1243 | Metabolite data: Acetyl-CoA: -0.3243 | Metabolite data: Acetyllysine: -0.16 | Metabolite data: Aconitate: -0.837 | Metabolite data: CDP: -0.7937 | Metabolite data: CDP-Ethanolamine: -0.6098 | Metabolite data: CDP-choline: 0 | Metabolite data: CMP: -1.862 | Metabolite data: CTP: -3.137 | Metabolite data: Citrate/Isocitrate: -0.6885 | Metabolite data: Cyclic-AMP: -0.9051 | Metabolite data: Dihydroorotate: 2.672 | Metabolite data: FAD: -0.1625 | Metabolite data: FMN: -0.9996 | Metabolite data: Fructose-1,6-Bisphosphate: -0.4129 | Metabolite data: Fumarate: -1.402 | Metabolite data: GDP: 0.4797 | Metabolite data: GMP: 0.1634 | Metabolite data: GTP: -1.061 | Metabolite data: Glucose-1/6-Phosphate: -0.4979 | Metabolite data: Glutathione Disulfide: -0.412 | Metabolite data: Hexose: 0 | Metabolite data: Hydroxyisocaproic acid: 0 | Metabolite data: Indole: -0.8571 | Metabolite data: Ketoleucine: 0 | Metabolite data: L-arginino-succinate: 0 | Metabolite data: Lactate: -0.809 | Metabolite data: Malate: -1.549 | Metabolite data: Myo-Inositol: -1.331 | Metabolite data: N-Acetyl-Glutamate: -0.2257 | Metabolite data: N-Acetyl-L-Alanine: -0.1646 | Metabolite data: N-Acetyl-L-Ornithine: -0.5891 | Metabolite data: N-Carbamoyl-L-Aspartate: 2.4139 | Metabolite data: NAD+: -0.1986 | Metabolite data: NADH: 0.07835 | Metabolite data: NADP+: -0.1908 | Metabolite data: NADPH: -0.3915 | Metabolite data: Nicotinate: -0.7359 | Metabolite data: Octulose 8/1-Phosphate: -0.4585 | Metabolite data: Orotate: -2.835 | Metabolite data: PD: -0.209 | Metabolite data: PE: -0.4415 | Metabolite data: PEEK: -0.4847 | Metabolite data: Phenol Red: 0 | Metabolite data: Pyroglutamic acid: -0.2671 | Metabolite data: S-Adenosyl-L-Homocysteine: -0.1944 | Metabolite data: S-methyl-5'-thioadenosine: -0.4315 | Metabolite data: SD: -0.8655 | Metabolite data: Sedoheptulose Bisphosphate: -0.2224 | Metabolite data: UDP: -2.0359 | Metabolite data: UDP-D-Glucose: -0.2988 | Metabolite data: UDP-D-Glucuronate: -0.2168 | Metabolite data: UDP-N-Acetyl-Glucosamine: -0.4693 | Metabolite data: UMP: -2.06 | Metabolite data: UTP: -4.388 | Metabolite data: a-ketoglutarate: -0.7348 | Metabolite data: acetyl-aspartate: 0 | Metabolite data: arginine: 0 | Metabolite data: asparagine: 0 | Metabolite data: aspartate: 0 | Metabolite data: biotin: 0 | Metabolite data: chlorpropamide: 0 | Metabolite data: coenzyme A: 0 | Metabolite data: dAMP: 1.7179 | Metabolite data: dATP: -0.3141 | Metabolite data: dCDP: -0.1509 | Metabolite data: dCMP: -1.099 | Metabolite data: dCTP: -2.549 | Metabolite data: dGDP/ADP: 0.1331 | Metabolite data: dGMP/AMP: 0.02924 | Metabolite data: dGTP/ATP: 0 | Metabolite data: dTDP: -1.607 | Metabolite data: dTMP: -2.786 | Metabolite data: dTTP: -3.44 | Metabolite data: folate: 0 | Metabolite data: glucono-lactone: 0 | Metabolite data: glutamate: 0 | Metabolite data: glutamine: 0 | Metabolite data: glutathione: 0 | Metabolite data: histidine: 0 | Metabolite data: hydroxyproline/Aminolevulinate: 0 | Metabolite data: isoleucine: 0 | Metabolite data: leucine: 0 | Metabolite data: maleic acid: 0 | Metabolite data: methionine: 0 | Metabolite data: nicotinamide mononucleotide: 0 | Metabolite data: orotidine-5'-phosphate: 0

COc1cc2[nH]c(C)c(-c3ccc(Oc4ccc(OC(F)(F)F)cc4)cc3)c(=O)c2cc1Cl [ELQ-300]
Metabolite data: 1_3-Bisphosphoglyceric acid: 0 | Metabolite data: 2_3-Diphosphoglyceric acid: -0.1098 | Metabolite data: 3-Phosphoglycerate: 0.01477 | Metabolite data: 4-Aminobutyrate: 0.29 | Metabolite data: 4-Phosphopantothenate: -0.3711 | Metabolite data: 4-phosphopantetheine: 0 | Metabolite data: 5-aminopentanoic acid: 0 | Metabolite data: 5-phosphoribosyl-1-pyrophosphate: 0 | Metabolite data: 6-Phospho-D-Gluconate: 0.1987 | Metabolite data: ADP-D-Glucose: -0.03292 | Metabolite data: Acetyl-CoA: -0.7931 | Metabolite data: Acetyllysine: -0.0938 | Metabolite data: Aconitate: 0.3201 | Metabolite data: CDP: -0.9142 | Metabolite data: CDP-Ethanolamine: -0.4266 | Metabolite data: CDP-choline: 0 | Metabolite data: CMP: -0.5539 | Metabolite data: CTP: -0.7898 | Metabolite data: Citrate/Isocitrate: 0.1898 | Metabolite data: Cyclic-AMP: 0.1104 | Metabolite data: Dihydroorotate: 5.061 | Metabolite data: FAD: 0.09303 | Metabolite data: FMN: -1.009 | Metabolite data: Fructose-1,6-Bisphosphate: 0.1196 | Metabolite data: Fumarate: 0.1542 | Metabolite data: GDP: -0.04006 | Metabolite data: GMP: 0.4588 | Metabolite data: GTP: 0.1697 | Metabolite data: Glucose-1/6-Phosphate: 0.2608 | Metabolite data: Glutathione Disulfide: -0.1199 | Metabolite data: Hexose: 0 | Metabolite data: Hydroxyisocaproic acid: 0 | Metabolite data: Indole: 0.2721 | Metabolite data: Ketoleucine: 0 | Metabolite data: L-arginino-succinate: 0 | Metabolite data: Lactate: -0.08432 | Metabolite data: Malate: 0.0586 | Metabolite data: Myo-Inositol: -0.4815 | Metabolite data: N-Acetyl-Glutamate: 0.1479 | Metabolite data: N-Acetyl-L-Alanine: -0.6073 | Metabolite data: N-Acetyl-L-Ornithine: -0.1715 | Metabolite data: N-Carbamoyl-L-Aspartate: 4.761 | Metabolite data: NAD+: 0.09044 | Metabolite data: NADH: 1.43 | Metabolite data: NADP+: -0.1602 | Metabolite data: NADPH: 3.029 | Metabolite data: Nicotinate: 0.05305 | Metabolite data: Octulose 8/1-Phosphate: -0.704 | Metabolite data: Orotate: 0.01858 | Metabolite data: PD: -0.006669 | Metabolite data: PE: -0.3407 | Metabolite data: PEEK: -0.3859 | Metabolite data: Phenol Red: 0 | Metabolite data: Pyroglutamic acid: 0.05668 | Metabolite data: S-Adenosyl-L-Homocysteine: -1.868 | Metabolite data: S-methyl-5'-thioadenosine: -0.1055 | Metabolite data: SD: -0.2791 | Metabolite data: Sedoheptulose Bisphosphate: 0.0682 | Metabolite data: UDP: -1.596 | Metabolite data: UDP-D-Glucose: -0.0232 | Metabolite data: UDP-D-Glucuronate: 0.002049 | Metabolite data: UDP-N-Acetyl-Glucosamine: -0.1795 | Metabolite data: UMP: -0.8903 | Metabolite data: UTP: -1.292 | Metabolite data: a-ketoglutarate: 0.1255 | Metabolite data: acetyl-aspartate: 0 | Metabolite data: arginine: 0 | Metabolite data: asparagine: 0 | Metabolite data: aspartate: 0 | Metabolite data: biotin: 0 | Metabolite data: chlorpropamide: 0 | Metabolite data: coenzyme A: 0 | Metabolite data: dAMP: -0.0907 | Metabolite data: dATP: 0.4618 | Metabolite data: dCDP: -0.107 | Metabolite data: dCMP: -0.1246 | Metabolite data: dCTP: -0.4381 | Metabolite data: dGDP/ADP: -0.01599 | Metabolite data: dGMP/AMP: -0.06466 | Metabolite data: dGTP/ATP: 0 | Metabolite data: dTDP: -1.258 | Metabolite data: dTMP: -1.023 | Metabolite data: dTTP: -1.011 | Metabolite data: folate: 0 | Metabolite data: glucono-lactone: 0 | Metabolite data: glutamate: 0 | Metabolite data: glutamine: 0 | Metabolite data: glutathione: 0 | Metabolite data: histidine: 0 | Metabolite data: hydroxyproline/Aminolevulinate: 0 | Metabolite data: isoleucine: 0 | Metabolite data: leucine: 0 | Metabolite data: maleic acid: 0 | Metabolite data: methionine: 0 | Metabolite data: nicotinamide mononucleotide: 0 | Metabolite data: orotidine-5'-phosphate: 0
